Test results: publication PMC3942006, “Ruthenium-Nitrosyl Complexes with Glycine, L-Alanine, L-Valine, L-Proline, D-Proline, L-Serine, L-Threonine, and L-Tyrosine: Synthesis, X-ray Diffraction Structures, Spectroscopic and Electrochemical Properties, and Antiproliferative Activity” (Inorganic Chemistry, 2014)

Assays:
[1] = system: CH1 cells (human ovarian carcinoma); assay: MTT assay, antiproliferative activity in CH1 cells; assay type: cell-based; conditions: for more active than the respective osmium analogue: CH1 cells; for IC50: MTT assay, exposure time 96 h, means ± SD
Source text: (§1) CH1 cells (human ovarian carcinoma) were a generous gift from Lloyd R. Kelland, CRC Centre for Cancer Therapeutics, Institute of Cancer Research, Sutton, UK. SW480 (human adenocarcinoma of the colon) and A549 (human nonsmall cell lung cancer) cells were kindly provided by Brigitte Marian (Institute of Cancer Research, Department of Medicine I, Medical University of Vienna, Austria). All cell culture media and reagents were purchased from Sigma-Aldrich Austria and plastic ware from Starlab Germany. Cells were grown in 75 cm^2 culture flasks as adherent monolayer cultures in minimum essential medium (MEM) supplemented with 10% heat-inactivated fetal calf serum, 1 mM sodium pyruvate, 4 mM L-glutamine, and 1% nonessential amino acids (from 100× ready-to-use stock). Cultures were maintained at 310 K in humidified atmosphere containing 95% air and 5% CO2.
(§2) Cytotoxic effects of the test compounds were determined by means of a colorimetric microculture assay [MTT assay; MTT = 3-(4,5-dimethyl-2-thiazolyl)-2,5-diphenyl-2H-tetrazolium bromide] as described previously.[13] Cells were harvested from culture flasks by trypsinization and seeded by using a pipetting system (Biotek Precision XS Microplate Sample Processor) in densities of 1 × 10^3 (CH1), 2 × 10^3 (SW480), and 3 × 10^3 (A549) in 100 μL/well aliquots in 96-well microculture plates. For 24 h, cells were allowed to settle and resume proliferation. […] After 96 h of drug exposure, the medium was replaced with 100 μL/well of a 1:7 MTT/RPMI 1640 mixture (MTT solution, 5 mg/mL of MTT reagent in phosphate-buffered saline; RPMI 1640 medium, supplemented with 10% heat-inactivated fetal bovine serum and 4 mM L-glutamine), and plates were incubated for further 4 h at 310 K. Subsequently, the solution was removed from all wells, and the formazan crystals formed by viable cells were dissolved in 150 μL of DMSO per well. Optical densities at 550 nm were measured with a microplate reader (Biotek ELx808) by using a reference wavelength of 690 nm to correct for unspecific absorption. The quantity of viable cells was expressed relative to untreated controls, and 50% inhibitory concentrations (IC50) were calculated from concentration-effect curves by interpolation. Evaluation is based on means from three independent experiments.

[2] = system: SW480 (human adenocarcinoma of the colon) cells; assay: MTT assay, antiproliferative activity in SW480 cells; assay type: cell-based; conditions: for more active than the respective osmium analogue: SW480 cells; for IC50: MTT assay, exposure time 96 h, means ± SD
Source text: as §1, §2

[3] = system: A549 (human nonsmall cell lung cancer) cells; assay: MTT assay, antiproliferative activity in A549 cells; assay type: cell-based; conditions: exposure time 96 h, means ± SD
Source text: as §1, §2

[4] = log D7.4 by shake-flask method, n-octanol/buffered aqueous solution; assay type: physicochemical; conditions: for log D7.4: n-octanol/0.02 M HEPES pH 7.4, T = 298.0 K; for log D7.4 in the presence of 0.1 M KCl: n-octanol/0.02 M HEPES pH 7.4, 0.1 M KCl, T = 298.0 K
Description: ^1H NMR spectra were recorded on a Bruker Avance III instrument (Ultrashiled Magnet) at 500.13 MHz at room temperature. DMSO-d6 was used as a solvent. Standard pulse programs were applied. ^1H chemical shifts were measured relative to the residual solvent peaks. […] Complex concentration was 1.0 mM. Watergate water suppression program and 4,4-dimethyl-4-silapentane-1-sulfonic acid (DSS) internal standard were used. ATR-IR spectra were measured on a Bruker Vertex spectrometer. D7.4 values were determined by the traditional shake-flask method in n-octanol/buffered aqueous solution at pH 7.4 (N-(2-hydroxyethyl)piperazine-N′-ethanesulfonic acid (HEPES) buffer) and 298.0 ± 0.2 K, as described previously.[25] In the case of the complexes of L-Ala (2) and L-Val (3) the D7.4 values were determined in the presence of 0.1 M KCl as well. Two parallel experiments were performed for each sample. The complexes were dissolved at 0.3 mM in the n-octanol presaturated aqueous solution of the buffer (0.02 M). The aqueous solutions and n-octanol with 1:1 phase ratio were gently mixed with 360° vertical rotation for 3 h to avoid emulsion formation, and the mixtures were centrifuged at 5000 rpm for 3 min by a temperature-controlled centrifuge at 298 K. After separation, UV spectra of the complexes in the aqueous phase were compared to those of the original aqueous solutions, and D7.4 values were calculated as the mean of [absorbance (original solution)/absorbance (aqueous phase after separation) – 1] obtained in the region of λ ≈ (250–290 nm). Circular dichroism (CD) and UV–vis spectra under physiological conditions (0.02 M phosphate buffer, pH 7.40 with 0.1 M KCl) were recorded on a Jasco J-815 spectrometer in an optical cell of 2 cm path length (l) in the wavelength range from 220 to 600 nm. The analytical concentration for the CD measurement of the complexes was 400 μM in aqueous solution. CD data are given as the differences in molar absorptivities between left and right circularly polarized light, based on the concentration of the […] (Δε = ΔA/l/ccomplex). The concentrations for the UV–vis measurements amounted to 403 (1), 401 (4), 401 (5), 400 (8), 399 (3), 401 (2), 403 (7), and 401 (6) μM.
The log D7.4 values of the complexes were determined by the traditional shake-flask method in n-octanol/buffered aqueous solution at pH 7.4 by analysis of the UV–vis spectra of the aqueous phases before and after separation (Supporting Information, Figure S10 and Table 5).

[5] = Stability in aqueous solution by UV-vis spectroscopy; assay type: physicochemical; conditions: pH 7.40, 0.02 M HEPES, 0.25 mM, 298.0 K, in the presence of 0.1 M KCl or in its absence
[6] = Co-incubation with sodium ascorbate followed by ESI mass spectrometry; assay type: physicochemical; conditions: 4 equiv sodium ascorbate (200 μM), 310 K, over 24 h
Description: (§3) The stability of four compounds, namely 1, 4, 5, and 8, in aqueous solution and in the presence of 4 equiv of sodium ascorbate was investigated using an AmaZon SL ESI ion trap mass spectrometer (Bruker Daltonics GmbH, Bremen, Germany). For this purpose, the compounds were diluted from 400 μM stock solution (1% DMSO) to 50 μM in water and in the presence of 200 μM sodium ascorbate. The solutions were incubated at 310 K in the dark, and samples were measured after 0.5, 1, 2, 6, and 24 h after a second dilution step to 5 μM of the metal compound. The samples were introduced by direct infusion into the mass spectrometer at 280 μL/h, and mass spectra were recorded over 0.5 min and averaged. Typical experimental conditions were as follows: high voltage (HV) capillary ±4.5 kV, dry temp 180 °C, nebulizer 8 psi, dry gas 6 L/min, radio frequency (RF) level 77%, trap drive 57.6, average accumulation time 25 ms (negative ion mode) and 120 μs (positive ion mode). […]
(§4) The aqueous stability of compounds 1, 4, 5, and 8 was also confirmed by ESI mass spectrometry. […] Dissolution of 1 in D2O leads to the change of the labile −NH2 to −ND2, and the resulting compound [RuCl3(N,N-d2-Gly−H)(NO)] ^– (m/z 314.74 compared to m/z 312.72 of 1) was analyzed. […] Note that related ruthenium-nitrosyl complexes with azole heterocycles reacted quantitatively with sodium ascorbate within several hours.[15]

[7] = Aqueous stability by ESI mass spectrometry; assay type: physicochemical; conditions: 50 μM in water, 310 K, over 24 h
Description: as §3, §4

[8] = Hydrolytic stability by 1H NMR spectroscopy; assay type: physicochemical; conditions: 10% D2O/H2O, pH = 5.86, compared with pH 7.4 buffer
Description: ^1H NMR spectra were recorded on a Bruker Avance III instrument (Ultrashiled Magnet) at 500.13 MHz at room temperature. DMSO-d6 was used as a solvent. Standard pulse programs were applied. ^1H chemical shifts were measured relative to the residual solvent peaks. […] Complex concentration was 1.0 mM. Watergate water suppression program and 4,4-dimethyl-4-silapentane-1-sulfonic acid (DSS) internal standard were used. ATR-IR spectra were measured on a Bruker Vertex spectrometer. D7.4 values were determined by the traditional shake-flask method in n-octanol/buffered aqueous solution at pH 7.4 (N-(2-hydroxyethyl)piperazine-N′-ethanesulfonic acid (HEPES) buffer) and 298.0 ± 0.2 K, as described previously.[25] In the case of the complexes of L-Ala (2) and L-Val (3) the D7.4 values were determined in the presence of 0.1 M KCl as well. […] The aqueous solutions and n-octanol with 1:1 phase ratio were gently mixed with 360° vertical rotation for 3 h to avoid emulsion formation, and the mixtures were centrifuged at 5000 rpm for 3 min by a temperature-controlled centrifuge at 298 K. After separation, UV spectra of the complexes in the aqueous phase were compared to those of the original aqueous solutions, and D7.4 values were calculated as the mean of [absorbance (original solution)/absorbance (aqueous phase after separation) – 1] obtained in the region of λ ≈ (250–290 nm). […]

## (nBu4N)[RuCl3(L-Pro–H)(NO)] [complex 4]
[1]
  more active than the respective osmium analogue: 5.7 fold
[2]
  more active than the respective osmium analogue: 4.4 fold

## CCCC[N+](CCCC)(CCCC)CCCC.O=[N][Ru-2]1([Cl])([Cl])([Cl])[NH2+][C@@H](CO)C(=O)[O]1 [complex 6, (nBu4N)[RuCl3(L-Ser–H)(NO)]]
[1]
  IC50: 13 ± 2 µM
[3]
  IC50: > 320 µM
[2]
  IC50: 63 ± 10 µM
[4]
  log D7.4: –1.77 ± 0.12

## (nBu4N)[RuCl3(L-Val–H)(NO)] [complex 3]
[1]
  IC50: 27 ± 3 µM
[3]
  IC50: > 320 µM
[2]
  IC50: 53 ± 2 µM
[4]
  log D7.4 in the presence of 0.1 M KCl: –1.31 ± 0.07
  log D7.4: –1.13 ± 0.02

## CCCC[N+](CCCC)(CCCC)CCCC.C[C@@H](O)[C@@H]1[NH2+][Ru-2]([Cl])([Cl])([Cl])([N]=O)[O]C1=O [complex 7, (nBu4N)[RuCl3(L-Thr–H)(NO)]]
[1]
  IC50: 23 ± 2 µM
[3]
  IC50: > 320 µM
[2]
  IC50: 71 ± 15 µM
[4]
  log D7.4: –1.75 ± 0.02

## CCCC[N+](CCCC)(CCCC)CCCC.O=[N][Ru-2]1([Cl])([Cl])([Cl])[NH2+][C@@H](Cc2ccc(O)cc2)C(=O)[O]1 [complex 8, (nBu4N)[RuCl3(L-Tyr–H)(NO)]]
[5]
  hydrolysis over 24 h (absorbance at 250 nm): negligible
[1]
  IC50: 17 ± 3 µM
[6]
  ligand release on incubation with sodium ascorbate: did not induce ligand release
[3]
  IC50: > 320 µM
[7]
  aqueous stability, species in negative ion mode ESI mass spectra: [RuCl3(AA–H)NO]^− as the major species
[2]
  IC50: 38 ± 12 µM
[8]
  hydrolytic stability: 1H NMR in nonbuffered medium: showed the same NMR spectra

## (nBu4N)[RuCl3(D-Pro–H)(NO)] [complex 5]
[1]
  more active than the respective osmium analogue: 11 fold
[2]
  more active than the respective osmium analogue: 14 fold

## CCCC[N+](CCCC)(CCCC)CCCC.C[C@@H]1[NH2+][Ru-2]([Cl])([Cl])([Cl])([N]=O)[O]C1=O [complex 2, (nBu4N)[RuCl3(L-Ala–H)(NO)]]
[1]
  IC50: 12 ± 2 µM
[3]
  IC50: > 320 µM
[2]
  IC50: 47 ± 3 µM
[4]
  log D7.4 in the presence of 0.1 M KCl: –1.47 ± 0.11
  log D7.4: –1.63 ± 0.08
